Key:
[1] = Plasma protein binding by high-throughput equilibrium dialysis; format: in vitro ADME, dog; details: both, dog, plasma
plasma proteins = assay: as above; format: in vitro ADME, dog; details: Mann–Whitney U test, n = 6 per group

Compound	fraction unbound at 4 h, 4 µM [1]	difference in plasma protein binding between H1 and H2 allele plasma (plasma proteins)
Cc1ccc(-c2cc(C(F)(F)F)nn2-c2ccc(S(N)(=O)=O)cc2)cc1 [celecoxib]	< 0.02	No significant difference
COc1c(C)c2c(c(O)c1C/C=C(\C)CCC(=O)O)C(=O)OC2 [mycophenolic acid]		No significant difference

From paper PMC6744390 (Drug Metabolism and Disposition, 2019)
